Test results as given in publication PMC2955773 (ACS chemical biology, 2010).

Columns and labels:
Format in all cases: cell-based
HT29 cells = experiment: CellTiter Glo toxicity assay; conditions: 10 μM in HT29 cells
Nox3 = molecular target: T1, Nox3 (Homo sapiens, UniProt Q9HBY0); experiment: HEK293-Nox3 selectivity assay
T1 sequence (Q9HBY0 1-568): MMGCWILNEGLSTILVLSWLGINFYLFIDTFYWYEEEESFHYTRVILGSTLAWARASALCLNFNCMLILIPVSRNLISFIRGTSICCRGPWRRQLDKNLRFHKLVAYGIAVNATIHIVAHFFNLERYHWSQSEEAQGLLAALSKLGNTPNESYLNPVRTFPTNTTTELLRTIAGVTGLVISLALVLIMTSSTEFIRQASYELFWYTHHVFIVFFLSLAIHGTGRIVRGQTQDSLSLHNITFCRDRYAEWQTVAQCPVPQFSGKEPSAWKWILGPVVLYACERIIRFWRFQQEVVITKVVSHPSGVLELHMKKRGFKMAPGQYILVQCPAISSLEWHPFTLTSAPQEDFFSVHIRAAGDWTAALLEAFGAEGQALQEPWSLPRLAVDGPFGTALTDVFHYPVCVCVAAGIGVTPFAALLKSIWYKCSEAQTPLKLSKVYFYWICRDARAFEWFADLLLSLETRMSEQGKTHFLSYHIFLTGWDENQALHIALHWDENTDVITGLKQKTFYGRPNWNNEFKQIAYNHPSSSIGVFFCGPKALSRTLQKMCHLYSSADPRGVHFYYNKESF
T1 sequence (P13498 2-195 partner limits assumed): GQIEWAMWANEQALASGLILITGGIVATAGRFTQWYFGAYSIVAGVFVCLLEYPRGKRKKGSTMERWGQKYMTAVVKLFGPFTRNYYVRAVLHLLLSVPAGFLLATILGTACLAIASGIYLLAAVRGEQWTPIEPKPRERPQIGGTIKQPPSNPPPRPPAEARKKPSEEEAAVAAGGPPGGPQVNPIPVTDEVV

Nox2 = molecular target: T2, Nox2 (Homo sapiens, UniProt P04839); experiment: HEK293-Nox2 selectivity assay
T2 sequence (P04839 2-570 limits assumed): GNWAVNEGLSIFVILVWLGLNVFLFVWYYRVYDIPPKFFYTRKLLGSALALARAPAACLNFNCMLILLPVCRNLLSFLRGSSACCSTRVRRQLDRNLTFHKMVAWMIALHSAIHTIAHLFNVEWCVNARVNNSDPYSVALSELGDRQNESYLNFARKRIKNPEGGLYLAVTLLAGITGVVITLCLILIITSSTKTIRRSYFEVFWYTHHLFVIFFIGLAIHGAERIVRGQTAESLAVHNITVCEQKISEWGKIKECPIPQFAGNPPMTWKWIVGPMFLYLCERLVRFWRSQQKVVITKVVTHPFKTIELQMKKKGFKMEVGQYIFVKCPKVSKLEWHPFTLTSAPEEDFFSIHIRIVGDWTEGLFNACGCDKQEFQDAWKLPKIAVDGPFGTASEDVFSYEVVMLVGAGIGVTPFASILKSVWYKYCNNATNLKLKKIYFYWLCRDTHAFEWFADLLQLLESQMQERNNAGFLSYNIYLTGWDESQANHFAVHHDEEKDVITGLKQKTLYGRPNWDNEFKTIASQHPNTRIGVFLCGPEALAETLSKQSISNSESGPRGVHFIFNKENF
T2 sequence (P13498 2-195 partner limits assumed): T1 sequence (P13498 2-195 partner limits assumed)

Nox4 = molecular target: T3, Nox4 (Homo sapiens, UniProt Q9NPH5); experiment: HEK293-Nox4 selectivity assay
T3 sequence (Q9NPH5 1-578): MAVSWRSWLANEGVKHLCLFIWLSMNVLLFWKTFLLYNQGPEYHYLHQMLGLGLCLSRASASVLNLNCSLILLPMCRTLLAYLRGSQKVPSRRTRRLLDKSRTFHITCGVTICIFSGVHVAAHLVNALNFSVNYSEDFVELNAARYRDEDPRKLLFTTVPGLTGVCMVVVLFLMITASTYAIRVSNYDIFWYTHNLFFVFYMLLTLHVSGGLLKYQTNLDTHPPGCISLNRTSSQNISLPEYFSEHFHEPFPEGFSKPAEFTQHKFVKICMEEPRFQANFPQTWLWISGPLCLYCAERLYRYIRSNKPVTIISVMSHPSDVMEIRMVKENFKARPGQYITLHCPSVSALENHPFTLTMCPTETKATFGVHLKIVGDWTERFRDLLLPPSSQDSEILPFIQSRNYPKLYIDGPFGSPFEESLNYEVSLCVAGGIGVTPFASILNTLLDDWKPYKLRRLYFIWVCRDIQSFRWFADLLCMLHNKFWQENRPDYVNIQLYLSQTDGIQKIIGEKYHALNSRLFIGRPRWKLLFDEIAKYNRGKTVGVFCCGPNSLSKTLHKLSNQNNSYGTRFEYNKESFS
T3 sequence (P13498 2-195 partner limits assumed): T1 sequence (P13498 2-195 partner limits assumed)

SMILES: FC(F)(F)c1ccc2c(c1)Nc1ccccc1S2
- cell death (HT29 cells): did not cause cell death
- activity on other Nox isoforms (Nox3): only a marginal activity
- activity on other Nox isoforms (Nox2): only a marginal activity
- activity on other Nox isoforms (Nox4): only a marginal activity
